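Cells were grown in 96-well plates and exposed to each compound for 48 hours at five concentrations; endpoints were interpolated linearly between bracketing concentrations, or set to the highest concentration if not reached. At the GI50, growth is halved.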 Active and inactive are the calls of the source. Cut-off read from the data, not from the text of the source: active = GI50 up to about 1.1 µM and inactive = higher.
Assays:
Assay in all cases: inhibition of tumour cell growth, NCI panel, 48 h
HCT-15 = tested on: HCT-15
SF-295 = tested on: SF-295
PC-3 = tested on: PC-3
HOP-92 = tested on: HOP-92
MDA-MB-231 = tested on: MDA-MB-231
LOX IMVI = tested on: LOX IMVI
SN12C = tested on: SN12C
HCT-116 = tested on: HCT-116
SK-MEL-5 = tested on: SK-MEL-5
OVCAR-5 = tested on: OVCAR-5
OVCAR-4 = tested on: OVCAR-4
KM12 = tested on: KM12
SK-MEL-28 = tested on: SK-MEL-28
SNB-75 = tested on: SNB-75
SK-MEL-2 = tested on: SK-MEL-2
K562 = tested on: K562
SNB-19 = tested on: SNB-19
SW-620 = tested on: SW-620
OVCAR-3 = tested on: OVCAR-3
UACC-62 = tested on: UACC-62
U-251 = tested on: U-251
OVCAR-8 = tested on: OVCAR-8
CAKI-1 = tested on: CAKI-1
NCI-H460 = tested on: NCI-H460
COLO 205 = tested on: COLO 205
RPMI-8226 = tested on: RPMI-8226
A549 = tested on: A549
EKVX = tested on: EKVX
NCI/ADR-RES = tested on: NCI/ADR-RES
HOP-62 = tested on: HOP-62
UACC-257 = tested on: UACC-257
CCRF-CEM = tested on: CCRF-CEM
MOLT-4 = tested on: MOLT-4
HCC 2998 = tested on: HCC 2998
ACHN = tested on: ACHN
M14 = tested on: M14
A498 = tested on: A498
IGROV-1 = tested on: IGROV-1
MDA-MB-435 = tested on: MDA-MB-435
MCF7 = tested on: MCF7
UO-31 = tested on: UO-31
NCI-H23 = tested on: NCI-H23
NCI-H226 = tested on: NCI-H226
SR = tested on: SR
BT-549 = tested on: BT-549
786-0 = tested on: 786-0
RXF 393 = tested on: RXF 393
SF-539 = tested on: SF-539
T47D = tested on: T47D
DU-145 = tested on: DU-145
Malme-3M = tested on: Malme-3M
SK-OV-3 = tested on: SK-OV-3
NCI-H522 = tested on: NCI-H522
HT-29 = tested on: HT-29
Hs-578T = tested on: Hs-578T
SF-268 = tested on: SF-268
HL-60 = tested on: HL-60

CSC12c3cc(C)n(-c4ccccc4)c3CC(C)(C)CN1C(=O)C2Oc1ccccc1 (configuration not stated)
GI50 (HCT-15): 28.1 µM
GI50 (SF-295): 8.18 µM (inactive)
GI50 (PC-3): 35.2 µM (inactive)
GI50 (HOP-92): 7.66 µM (inactive)
GI50 (MDA-MB-231): > 100 µM (inactive)
GI50 (LOX IMVI): 17.5 µM (inactive)
GI50 (SN12C): > 100 µM (inactive)
GI50 (HCT-116): 12.1 µM (inactive)
GI50 (SK-MEL-5): 22.4 µM (inactive)
GI50 (OVCAR-5): > 100 µM (inactive)
GI50 (OVCAR-4): > 100 µM (inactive)
GI50 (KM12): > 100 µM (inactive)
GI50 (SK-MEL-28): 62.7 µM (inactive)
GI50 (SNB-75): > 100 µM (inactive)
GI50 (SK-MEL-2): 72.8 µM (inactive)
GI50 (K562): 32.1 µM (inactive)
GI50 (SNB-19): > 100 µM (inactive)
GI50 (SW-620): 40.1 µM (inactive)
GI50 (OVCAR-3): > 100 µM (inactive)
GI50 (UACC-62): 29.3 µM (inactive)
GI50 (U-251): 93.5 µM (inactive)
GI50 (OVCAR-8): 97.3 µM (inactive)
GI50 (CAKI-1): > 100 µM (inactive)
GI50 (NCI-H460): 29.1 µM (inactive)
GI50 (COLO 205): 30.5 µM (inactive)
GI50 (RPMI-8226): 7.08 µM (inactive)
GI50 (A549): 11.7 µM (inactive)
GI50 (EKVX): 26.5 µM (inactive)
GI50 (NCI/ADR-RES): 62.4 µM (inactive)
GI50 (HOP-62): > 100 µM (inactive)
GI50 (UACC-257): 19.1 µM (inactive)
GI50 (CCRF-CEM): 16.6 µM (inactive)
GI50 (MOLT-4): 10.2 µM (inactive)
GI50 (HCC 2998): 41.2 µM (inactive)
GI50 (ACHN): 36 µM (inactive)
GI50 (M14): 12.4 µM (inactive)
GI50 (A498): 54 µM (inactive)
GI50 (IGROV-1): > 100 µM (inactive)
GI50 (MDA-MB-435): > 100 µM (inactive)
GI50 (MCF7): 18 µM (inactive)
GI50 (UO-31): 25.7 µM (inactive)
GI50 (NCI-H23): 27.9 µM (inactive)
GI50 (NCI-H226): 24.9 µM (inactive)
GI50 (SR): 11.3 µM (inactive)
GI50 (BT-549): 85.7 µM (inactive)
GI50 (786-0): 83.8 µM (inactive)
GI50 (RXF 393): > 100 µM (inactive)
GI50 (SF-539): > 100 µM (inactive)
GI50 (T47D): > 100 µM (inactive)
GI50 (DU-145): > 100 µM (inactive)

CC(C)(C)[Si](C)(C)OCC1OC(n2cc(I)c(=O)[nH]c2=O)C(O[Si](C)(C)C(C)(C)C)C1O[Si](C)(C)C(C)(C)C (configuration not stated)
GI50 (HCT-15): 29.8 µM
GI50 (SF-295): 15.2 µM (inactive)
GI50 (PC-3): 7.24 µM (inactive)
GI50 (HOP-92): 22.1 µM (inactive)
GI50 (MDA-MB-231): 15.3 µM (inactive)
GI50 (LOX IMVI): 12.5 µM (inactive)
GI50 (SN12C): 26.9 µM (inactive)
GI50 (SK-MEL-5): 16.6 µM (inactive)
GI50 (OVCAR-5): 24.8 µM (inactive)
GI50 (OVCAR-4): 55.8 µM (inactive)
GI50 (Malme-3M): 53.3 µM (inactive)
GI50 (SK-OV-3): 32.1 µM (inactive)
GI50 (SNB-75): 16.1 µM (inactive)
GI50 (SK-MEL-2): > 10 µM (inactive)
GI50 (SNB-19): 19.5 µM (inactive)
GI50 (SW-620): 14.6 µM (inactive)
GI50 (OVCAR-3): 14.3 µM (inactive)
GI50 (NCI-H522): 9.68 µM (inactive)
GI50 (UACC-62): 16.7 µM (inactive)
GI50 (HT-29): 14.3 µM (inactive)
GI50 (OVCAR-8): 12.7 µM (inactive)
GI50 (NCI-H460): 15.5 µM (inactive)
GI50 (COLO 205): 19.1 µM (inactive)
GI50 (A549): 11.4 µM (inactive)
GI50 (EKVX): 22 µM (inactive)
GI50 (NCI/ADR-RES): > 100 µM (inactive)
GI50 (HOP-62): 20.1 µM (inactive)
GI50 (UACC-257): 10.5 µM (inactive)
GI50 (MOLT-4): 10.7 µM (inactive)
GI50 (ACHN): 15.2 µM (inactive)
GI50 (M14): 15.7 µM (inactive)
GI50 (IGROV-1): 17.7 µM (inactive)
GI50 (MCF7): 12.9 µM (inactive)
GI50 (UO-31): 23.8 µM (inactive)
GI50 (NCI-H226): 25.6 µM (inactive)
GI50 (SR): 28.1 µM (inactive)
GI50 (BT-549): 24 µM (inactive)
GI50 (Hs-578T): 18.6 µM (inactive)
GI50 (SF-268): 21.1 µM (inactive)
GI50 (T47D): 17.1 µM (inactive)

CN1CCN(c2ccc3nc(C4=C(O)C(=O)[C@@H]5C(=C4O)N=C(CO)N5C)[nH]c3n2)CC1
GI50 (HCT-15): > 100 µM
GI50 (SF-295): > 100 µM (inactive)
GI50 (PC-3): 69.8 µM (inactive)
GI50 (HOP-92): 55 µM (inactive)
GI50 (MDA-MB-231): 62.5 µM (inactive)
GI50 (LOX IMVI): 73.1 µM (inactive)
GI50 (SN12C): > 100 µM (inactive)
GI50 (HCT-116): 94.2 µM (inactive)
GI50 (OVCAR-5): > 100 µM (inactive)
GI50 (OVCAR-4): 75.2 µM (inactive)
GI50 (KM12): > 100 µM (inactive)
GI50 (SK-MEL-28): > 100 µM (inactive)
GI50 (Malme-3M): > 100 µM (inactive)
GI50 (SK-OV-3): > 100 µM (inactive)
GI50 (SNB-75): 97.3 µM (inactive)
GI50 (K562): 24 µM (inactive)
GI50 (SNB-19): 57.5 µM (inactive)
GI50 (SW-620): > 100 µM (inactive)
GI50 (OVCAR-3): 91 µM (inactive)
GI50 (NCI-H522): 64.3 µM (inactive)
GI50 (UACC-62): 33.3 µM (inactive)
GI50 (HT-29): > 100 µM (inactive)
GI50 (U-251): 41.4 µM (inactive)
GI50 (OVCAR-8): 61.1 µM (inactive)
GI50 (CAKI-1): > 100 µM (inactive)
GI50 (NCI-H460): > 100 µM (inactive)
GI50 (COLO 205): 80.5 µM (inactive)
GI50 (RPMI-8226): > 100 µM (inactive)
GI50 (A549): > 100 µM (inactive)
GI50 (EKVX): > 100 µM (inactive)
GI50 (NCI/ADR-RES): > 100 µM (inactive)
GI50 (HOP-62): > 100 µM (inactive)
GI50 (UACC-257): > 100 µM (inactive)
GI50 (CCRF-CEM): 97.5 µM (inactive)
GI50 (MOLT-4): > 100 µM (inactive)
GI50 (HCC 2998): 68.4 µM (inactive)
GI50 (ACHN): > 100 µM (inactive)
GI50 (M14): > 100 µM (inactive)
GI50 (IGROV-1): > 100 µM (inactive)
GI50 (MDA-MB-435): 93.8 µM (inactive)
GI50 (UO-31): > 100 µM (inactive)
GI50 (HL-60): 40.2 µM (inactive)
GI50 (NCI-H23): > 100 µM (inactive)
GI50 (NCI-H226): > 100 µM (inactive)
GI50 (BT-549): > 100 µM (inactive)
GI50 (786-0): > 100 µM (inactive)
GI50 (Hs-578T): > 100 µM (inactive)
GI50 (SF-268): 74.3 µM (inactive)
GI50 (RXF 393): > 100 µM (inactive)
GI50 (SF-539): 33.5 µM (inactive)
GI50 (T47D): 17.7 µM (inactive)
GI50 (DU-145): > 100 µM (inactive)

O=S(=O)(O)Oc1cc2c(c(OS(=O)(=O)O)c1)C[C@H](OS(=O)(=O)O)[C@@H](c1ccc(OS(=O)(=O)O)c(OS(=O)(=O)O)c1)O2
GI50 (HCT-15): > 100 µM
GI50 (SF-295): > 100 µM (inactive)
GI50 (PC-3): > 100 µM (inactive)
GI50 (HOP-92): > 100 µM (inactive)
GI50 (MDA-MB-231): 85.7 µM (inactive)
GI50 (LOX IMVI): > 100 µM (inactive)
GI50 (SN12C): > 100 µM (inactive)
GI50 (SK-MEL-5): > 100 µM (inactive)
GI50 (OVCAR-5): > 100 µM (inactive)
GI50 (OVCAR-4): > 100 µM (inactive)
GI50 (Malme-3M): > 100 µM (inactive)
GI50 (SK-OV-3): > 100 µM (inactive)
GI50 (SNB-75): 43.6 µM (inactive)
GI50 (SK-MEL-2): > 100 µM (inactive)
GI50 (SNB-19): > 100 µM (inactive)
GI50 (SW-620): > 100 µM (inactive)
GI50 (OVCAR-3): > 100 µM (inactive)
GI50 (NCI-H522): > 100 µM (inactive)
GI50 (UACC-62): > 100 µM (inactive)
GI50 (HT-29): > 100 µM (inactive)
GI50 (OVCAR-8): > 100 µM (inactive)
GI50 (NCI-H460): > 100 µM (inactive)
GI50 (COLO 205): > 100 µM (inactive)
GI50 (A549): > 100 µM (inactive)
GI50 (EKVX): > 100 µM (inactive)
GI50 (NCI/ADR-RES): > 100 µM (inactive)
GI50 (HOP-62): > 100 µM (inactive)
GI50 (UACC-257): > 100 µM (inactive)
GI50 (MOLT-4): > 100 µM (inactive)
GI50 (ACHN): > 100 µM (inactive)
GI50 (M14): > 100 µM (inactive)
GI50 (IGROV-1): > 100 µM (inactive)
GI50 (MCF7): > 100 µM (inactive)
GI50 (UO-31): > 100 µM (inactive)
GI50 (NCI-H226): > 100 µM (inactive)
GI50 (SR): > 100 µM (inactive)
GI50 (BT-549): > 100 µM (inactive)
GI50 (Hs-578T): > 100 µM (inactive)
GI50 (SF-268): > 100 µM (inactive)
GI50 (T47D): > 100 µM (inactive)
